What was measured:
Assay type in all cases: in vivo
Kochia (Kochia scoparia) [1] = test: Test A preemergence; conditions: Bassia scoparia, pre-emergence, 240 h
How it was run: (§1)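 Visual injury scores from 0, no effect, to 100, complete control, were assigned versus untreated controls roughly 10 d after treatment in the greenhouse. Test chemicals, formulated with surfactant in a non-phytotoxic solvent, were applied to planted seeds as a preemergence soil spray or postemergence to one- to two-leaf plants 2 to 10 cm tall, in loam–sand soil.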

[2] = test system: barnyardgrass (Echinochloa crus-galli); test: Test A preemergence; conditions: Echinochloa crus-galli, pre-emergence, 240 h
How it was run: as §1

[3] = test system: giant foxtail (Setaria faberii); test: Test A preemergence; conditions: Setaria faberi, pre-emergence, 240 h
How it was run: as §1

[4] = test system: pigweed (Amaranthus retroflexus); test: Test A preemergence; conditions: Amaranthus retroflexus, pre-emergence, 240 h
[5] = test system: ragweed (common ragweed, Ambrosia elatior); test: Test A preemergence; conditions: Ambrosia artemisiifolia, pre-emergence, 240 h
How it was run: as §1

[6] = test system: ryegrass, Italian (Italian ryegrass, Lolium multiflorum); test: Test A preemergence; conditions: Lolium multiflorum, pre-emergence, 240 h
How it was run: as §1

[7] = test system: Galium (catchweed bedstraw, Galium aparine); test: Test A postemergence; conditions: Galium, post-emergence, 240 h, 125 g ai/ha, Postemergence; visual injury after approximately 10 d; 0 to 100 scale where 0 is no effect and 100 is complete control; read-out: Plant response rating, Galium
How it was run: as §1

Kochia (Kochia scoparia) [8] = test: Test A postemergence; conditions: Bassia scoparia, post-emergence, 240 h, 125 g ai/ha, Postemergence; visual injury after approximately 10 d; 0 to 100 scale where 0 is no effect and 100 is complete control; read-out: Plant response rating, Kochia
How it was run: as §1

[9] = test system: barnyardgrass (Echinochloa crus-galli); test: Test A postemergence; conditions: Echinochloa crus-galli, post-emergence, 240 h, 125 g ai/ha, Postemergence; visual injury after approximately 10 d; 0 to 100 scale where 0 is no effect and 100 is complete control; read-out: Plant response rating, Barnyardgrass
How it was run: as §1

[10] = test system: blackgrass (Alopecurus myosuroides); test: Test A postemergence; conditions: Alopecurus myosuroides, post-emergence, 240 h, 125 g ai/ha, Postemergence; visual injury after approximately 10 d; 0 to 100 scale where 0 is no effect and 100 is complete control; read-out: Plant response rating, Blackgrass
How it was run: as §1

corn (Zea mays) = test: Test A postemergence; conditions: Zea mays, post-emergence, 240 h, 125 g ai/ha, Postemergence; visual injury after approximately 10 d; 0 to 100 scale where 0 is no effect and 100 is complete control
How it was run: as §1

[11] = test system: giant foxtail (Setaria faberii); test: Test A postemergence; conditions: Setaria faberi, post-emergence, 240 h, 125 g ai/ha, Postemergence; visual injury after approximately 10 d; 0 to 100 scale where 0 is no effect and 100 is complete control; read-out: Plant response rating, Foxtail, Giant
How it was run: as §1

[12] = test system: pigweed (Amaranthus retroflexus); test: Test A postemergence; conditions: Amaranthus retroflexus, post-emergence, 240 h, 125 g ai/ha, Postemergence; visual injury after approximately 10 d; 0 to 100 scale where 0 is no effect and 100 is complete control; read-out: Plant response rating, Pigweed
How it was run: as §1

[13] = test system: ragweed (common ragweed, Ambrosia elatior); test: Test A postemergence; conditions: Ambrosia artemisiifolia, post-emergence, 240 h, 125 g ai/ha, Postemergence; visual injury after approximately 10 d; 0 to 100 scale where 0 is no effect and 100 is complete control; read-out: Plant response rating, Ragweed
How it was run: as §1

[14] = test system: ryegrass, Italian (Italian ryegrass, Lolium multiflorum); test: Test A postemergence; conditions: Lolium multiflorum, post-emergence, 240 h, 125 g ai/ha, Postemergence; visual injury after approximately 10 d; 0 to 100 scale where 0 is no effect and 100 is complete control; read-out: Plant response rating, Ryegrass, Italian
How it was run: as §1

[15] = test system: wheat (Triticum aestivum); test: Test A postemergence; conditions: Triticum aestivum, post-emergence, 240 h, 125 g ai/ha, Postemergence; visual injury after approximately 10 d; 0 to 100 scale where 0 is no effect and 100 is complete control; read-out: Plant response rating, Wheat
How it was run: as §1

[16] = test system: barnyardgrass (Echinochloa crus-galli); test: Test B flooded paddy test; conditions: Echinochloa crus-galli, Flood, 250 g ai/ha; scale of 0 to 100 where 0 is no effect and 100 is complete control; read-out: Barnyardgrass plant response rating
How it was run: (§2)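 Percent control, visually estimated after 13–15 d in the greenhouse on a 0–100 basis, compares treated pots with untreated ones; compound was put into paddy water 3 cm above the soil when plants had two leaves.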

[17] = test system: ducksalad (Heteranthera limosa); test: Test B flooded paddy test; conditions: Heteranthera limosa, Flood, 250 g ai/ha; scale of 0 to 100 where 0 is no effect and 100 is complete control; read-out: Ducksalad plant response rating
How it was run: as §2

rice (Oryra sativa) = test: Test B flooded paddy test; conditions: Oryza sativa, Flood, 250 g ai/ha; scale of 0 to 100 where 0 is no effect and 100 is complete control; read-out: Rice plant response rating
How it was run: as §2

[18] = test system: sedge, umbrella (small-flower umbrella sedge, Cyperus difformis); test: Test B flooded paddy test; conditions: Cyperus difformis, Flood, 250 g ai/ha; scale of 0 to 100 where 0 is no effect and 100 is complete control; read-out: Sedge, Umbrella plant response rating
How it was run: as §2

Compound `CCc1cc(CC)cc([C@H]2CNC(=O)[C@@H]2C(=O)Nc2ccccc2C(F)(F)F)c1` [Compound 969] has a pest or weed control at 125 g/ha (Kochia (Kochia scoparia) [1]; 125 g ai/ha, Preemergence, visual injury rating after approximately 10 d, read-out: Kochia plant response rating (0 to 100 scale, 0 is no effect, 100 is complete control)) of 0%, a pest or weed control at 500 g/ha (Kochia (Kochia scoparia) [1]; 500 g ai/ha, preemergence, visual injury rating about 10 d after treatment, 0 to 100 scale (0 no effect, 100 complete control), read-out: Kochia plant response rating) of 0% and a pest or weed control at 125 g/ha ([2]; 125 g ai/ha, Preemergence, visual injury rating after approximately 10 d, read-out: Barnyardgrass plant response rating (0 to 100 scale, 0 is no effect, 100 is complete control)) of 50%. It also gave a pest or weed control at 500 g/ha ([2]; 500 g ai/ha, preemergence, visual injury rating about 10 d after treatment, 0 to 100 scale (0 no effect, 100 complete control), read-out: Barnyardgrass plant response rating) of 80%, a pest or weed control at 125 g/ha ([3]; 125 g ai/ha, Preemergence, visual injury rating after approximately 10 d, read-out: Foxtail, Giant plant response rating (0 to 100 scale, 0 is no effect, 100 is complete control)) of 90% and a pest or weed control at 500 g/ha ([3]; 500 g ai/ha, preemergence, visual injury rating about 10 d after treatment, 0 to 100 scale (0 no effect, 100 complete control), read-out: Foxtail, Giant plant response rating) of 90%. For the same compound, the pest or weed control at 125 g/ha ([4]; 125 g ai/ha, Preemergence, visual injury rating after approximately 10 d, read-out: Pigweed plant response rating (0 to 100 scale, 0 is no effect, 100 is complete control)) was 0%, the pest or weed control at 500 g/ha ([4]; 500 g ai/ha, preemergence, visual injury rating about 10 d after treatment, 0 to 100 scale (0 no effect, 100 complete control), read-out: Pigweed plant response rating) was 0% and the pest or weed control at 125 g/ha ([5]; 125 g ai/ha, Preemergence, visual injury rating after approximately 10 d, read-out: Ragweed plant response rating (0 to 100 scale, 0 is no effect, 100 is complete control)) was 0%. The pest or weed control at 500 g/ha ([5]; 500 g ai/ha, preemergence, visual injury rating about 10 d after treatment, 0 to 100 scale (0 no effect, 100 complete control), read-out: Ragweed plant response rating) was 0%, the pest or weed control at 125 g/ha ([6]; 125 g ai/ha, Preemergence, visual injury rating after approximately 10 d, read-out: Ryegrass, Italian plant response rating (0 to 100 scale, 0 is no effect, 100 is complete control)) was 40% and the pest or weed control at 500 g/ha ([6]; 500 g ai/ha, preemergence, visual injury rating about 10 d after treatment, 0 to 100 scale (0 no effect, 100 complete control), read-out: Ryegrass, Italian plant response rating) was 30%. It also gave a pest or weed control at 125 g/ha [7] of 20%, a pest or weed control at 125 g/ha (Kochia (Kochia scoparia) [8]) of 0% and a pest or weed control at 125 g/ha [9] of 50%. It also gave a pest or weed control at 125 g/ha [10] of 0%, a Corn plant response rating (crop injury, 0 = no effect, 100 = complete kill) at 125 g/ha (corn (Zea mays)) of 50% and a pest or weed control at 125 g/ha [11] of 50%. The pest or weed control at 125 g/ha [12] was 0%, the pest or weed control at 125 g/ha [13] was 0% and the pest or weed control at 125 g/ha [14] was 20%. It also gave a plant injury at 125 g/ha [15] of 30%, a pest or weed control at 250 g/ha [16] of 0% and a pest or weed control at 250 g/ha [17] of 0%. It also gave a pest or weed control at 250 g/ha (rice (Oryra sativa)) of 0% and a pest or weed control at 250 g/ha [18] of 0%.

— patent US12077503B2, “Substituted cyclic amides and their use as herbicides” (FMC CORPORATION, priority 2015, dated 2024)
